From ChEMBL document CHEMBL1123473, “4,5-Disubstituted primaquine analogues as potential antimalarial agents” (1986)

How the values were obtained:
Plasmodium cynomolgi [1] = assay: Antimalarial activity against Plasmodium cynomolgi infected rhesus monkey at 0.75 mg/kg dose; 4 of 6; assay type: functional
Plasmodium cynomolgi [2] = assay: Antimalarial activity against Plasmodium cynomolgi infected rhesus monkey at 0.25 mg/kg dose; 0 of 6; assay type: functional
Plasmodium cynomolgi [3] = assay: Antimalarial activity against Plasmodium cynomolgi infected rhesus monkey at 0.5 mg/kg dose; cured 4 of 6; assay type: functional
Plasmodium cynomolgi [4] = assay: Antimalarial activity against Plasmodium cynomolgi in rhesus monkey 1.0 mg/kg; 0 of 2; assay type: functional
Rhesus monkey [5] = assay: Number of days between the end of the treatment and relapse was reported at a dose 1.0 mg/kg; assay type: functional, Cercopithecidae
Plasmodium cynomolgi [6] = assay: Antimalarial activity against Plasmodium cynomolgi in rhesus monkey at a dose 0.1 mg/kg; 0 of 1; assay type: functional
Rhesus monkey [7] = assay: Number of days between the end of the treatment and relapse was reported at a dose 0.1 mg/kg; assay type: functional, Cercopithecidae
Plasmodium cynomolgi [8] = assay: Antimalarial activity against Plasmodium cynomolgi infected Rhesus monkeys (Macaca mulatta) at 0.0625 mg/kg dose; cured 0 of 2; assay type: functional
Plasmodium cynomolgi [9] = assay: Antimalarial activity against Plasmodium cynomolgi in rhesus monkey at a dose 0.125 mg/kg; 2 of 2; assay type: functional
Plasmodium cynomolgi [10] = assay: Antimalarial activity against Plasmodium cynomolgi infected rhesus monkey at 0.5 mg/kg dose; 1 of 1; assay type: functional
Plasmodium cynomolgi [11] = assay: Antimalarial activity against Plasmodium cynomolgi infected rhesus monkey at 0.25 mg/kg; 2 of 2; assay type: functional
Plasmodium cynomolgi [12] = assay: Antimalarial activity against Plasmodium cynomolgi in rhesus monkey 1.0 mg/kg; 0 of 1; assay type: functional
Plasmodium cynomolgi [13] = assay: Antimalarial activity against Plasmodium cynomolgi in rhesus monkey 1.0 mg; 2 of 2; assay type: functional
Plasmodium cynomolgi [14] = assay: Antimalarial activity against Plasmodium cynomolgi in rhesus monkey 0.316 mg/kg; 1 of 2; assay type: functional
Rhesus monkey [15] = assay: Number of days between the end of the treatment and relapse was reported at a dose 0.316 mg/kg; assay type: functional, Cercopithecidae
Plasmodium cynomolgi [16] = assay: Antimalarial activity against Plasmodium cynomolgi in rhesus monkey at a dose 0.1 mg/kg; 0 of 2; assay type: functional
Plasmodium cynomolgi [17] = assay: Antimalarial activity against Plasmodium cynomolgi in rhesus monkey 1.0 mg/kg; 1 of 2; assay type: functional
Plasmodium cynomolgi [18] = assay: Antimalarial activity against Plasmodium cynomolgi in rhesus monkey 0.316 mg/kg; 0 of 1; assay type: functional

## COc1cc(NC(C)CCCN)c2ncccc2c1 (centres undefined) [PRIMAQUINE]
Plasmodium cynomolgi [1]
  Cures: 4
Plasmodium cynomolgi [2]
  Cures: 0
Plasmodium cynomolgi [3]
  Cures: 4

## COc1cc(NC(C)CCCN)c2nccc(COc3cccc(C(F)(F)F)c3)c2c1Oc1cccc(C(F)(F)F)c1 (centres undefined)
Plasmodium cynomolgi [4]
  Cures: 0
Rhesus monkey [5]
  Relapses: 11
Plasmodium cynomolgi [6]
  Cures: 0
Rhesus monkey [7]
  Relapses: 11

## COc1cc(NC(C)CCCN)c2nccc(C)c2c1OC (centres undefined)
Plasmodium cynomolgi [8]
  Cures: 0
Plasmodium cynomolgi [9]
  Cures: 2
Plasmodium cynomolgi [10]
  Cures: 1
Plasmodium cynomolgi [11]
  Cures: 2

## COc1cc(NC(C)CCCN)c2nccc(COc3cccc(C(F)(F)F)c3)c2c1OC (centres undefined)
Rhesus monkey [5]
  Relapses: 12
Plasmodium cynomolgi [12]
  Cures: 0

## COCc1ccnc2c(NC(C)CCCN)cc(OC)c(Oc3cccc(C(F)(F)F)c3)c12 (centres undefined)
Plasmodium cynomolgi [13]
  Cures: 2
Plasmodium cynomolgi [14]
  Cures: 1
Rhesus monkey [15]
  Relapses: 28
Plasmodium cynomolgi [16]
  Cures: 0
Rhesus monkey [7]
  Relapses: 8

## C=Cc1ccnc2c(NC(C)CCCN)cc(OC)c(OC)c12 (centres undefined)
Rhesus monkey [5]
  Relapses: 27
Plasmodium cynomolgi [17]
  Cures: 1
Rhesus monkey [15]
  Relapses: 23
Plasmodium cynomolgi [6]
  Cures: 0
Plasmodium cynomolgi [18]
  Cures: 0
Rhesus monkey [7]
  Relapses: 9
